According to patent publication US11974987B2, “Monoacylglycerol lipase modulators for use in autism spectrum disorders” (Janssen Pharmaceutica NV, priority 2021, dated 2024):
Where two headings read alike, the source gives them in different places.

Tests used:
[1] = molecular target: human MGL from HeLa cells (Homo sapiens (Human), UniProt Q99685); experiment: in vitro MGL activity assay ([glycerol-1,3-3H]-oleoyl glycerol cleavage); type: biochemical
Method: The assay consists of combining endogenously expressed MGL from HeLa cells with test compounds, adding [glycerol-1,3-^3H]-oleoyl glycerol, incubating for one hour, and then measuring the amount of cleaved [1,3-^3H]-glycerol that passes through an activated carbon filter. The amount of cleaved, tritiated glycerol passing through the carbon filter is proportional to the activity of the MGL enzyme in a particular well/test condition.
Standard conditions for this assay combine 300 nM [Glycerol-1,3-^3H]-oleoyl glycerol with human MGL from HeLa cells and test compounds for one hour, after which the reaction is filtered through activated carbon and tritium is measured in the flow through. […] MGL is the predominant hydrolase in HeLa cells/cell homogenates.

C57BL/6J mice = experiment: Three-chamber sociability test in C57BL/6J mice (control); type: in vivo, mouse; details: C57BL/6 mice, 3 mg/kg p.o., 60 minutes before testing
Method: (§1) Biological Example 3. The behavioral effects of the compound of Example 78 were evaluated using an animal model of autism in a sociability assay after administration of the compound. The sociability assay was conducted using C57BL/6J mice (commerically available from the Jackon Laboratory, Bar Harbor, ME) as control, and BTBR T^+ Itpr3^tf/mice (referred herein as “BTBR”)(commerically available from the Jackon Laboratory, Bar Harbor, ME) as an autism model.
(§2) Thirty (30) C57BL/6J female mice and thirty (30) BTBR female mice (7-8 weeks old) were used in Biological Example 3. Upon arrival, mice were group-housed (4-5/cage) and acclimated for at least 5 days prior to commencing studies. Animals were maintained on a 12 hr light/dark cycle with room temperature maintained at 22±2° C. and approximately 50% humidity and had access to food and water ad libitum until the day before the experiment.
(§3) The two solutions listed in Table 4 were formulated fresh daily for p.o. administration. Both solutions comprise 20% 2-Hydroxypropyl-β-cyclodextrin (HP-3-CD). The solution containing Example 78 is in a concentration of 0.3 mg/mL.
(§4) Each type of mice is divided into two different treatment groups: those orally administered a Vehicle solution, and those orally administered with a solution of Example 78, both prepared according to Table 4 above. The mice were randomly assigned to treatment groups according to Table 5 below. Mice were administered the test article 60 minutes prior to testing.
(§5) Experiments were carried out in a gray plastic arena with two clear dividers creating three chambers (each 19 cm×45 cm). […] Two wire cup-like containers were placed in the corner of either end of the arena (right chamber and left chamber). These containers were used to house either stimulus or familiar mice. The arena was placed in a room with dim lighting (˜10 lux). Animals were brought into the room to acclimate for at least 1 hour prior to beginning experiment.
Initially, empty wire cups are placed into the right and left chambers. Each of the C57BL/6J or BTBR mouse was placed into the center chamber and allowed to habituate for 10 minutes to the arena. After the 10-minute habituation and with the animal still in the arena, a first stimulus mouse, which was subsequently considered a familiar mouse, was placed inside one of the wire cups in either the right or left chamber. In the other wire cup, a small object was placed. […]
During the latter 10-minute period, activity of each mouse was recorded and analyzed using the Noldus EthoVision™ software, which is a video tracking software that tracks and analyzes the behavior, movement. The following data were record and scored using activity of each mouse for: […]
Data were plotted and analyzed using GraphPad Prism (version 9.1.1) software. […]

BTBR mice = experiment: Three-chamber sociability test in BTBR mice (autism model); type: in vivo, mouse; details: 3 mg/kg p.o., 60 minutes before testing
Method: as §1
The BTBR mice used in Biological Example 3 was derived from the inbred strain BTBR (Black and Tan BRachyury) that carried the mutations a^t (nonagouti; black and tan), Itpr3^tf (inositol 1,4,5-triphosphate receptor 3; tufted), and T (brachyury). […] (Wahlsten D, 2003 Brain Res). […] (McFarlane H G, 2008, Gen, Brain Behav; Moy S S, 2007, Behav Br Res, Scattoni M L, 2008, PLos). This strain of mice contains the Trem2S148E allele—a naturally occurring variant at position 48351151-48351152 on Chr 17 (rs108080490 and rs107649577; Ensembl GRCm38.p6). This TC to GA transition results in a serine to glutamic acid substitution at amino acid 148 (S148E).
as §2, §3, §4, §5
Initially, empty wire cups are placed into the right and left chambers. Each of the C57BL/6J or BTBR mouse was placed into the center chamber and allowed to habituate for 10 minutes to the arena. After the 10-minute habituation and with the animal still in the arena, a first stimulus mouse, which was subsequently considered a familiar mouse, was placed inside one of the wire cups in either the right or left chamber. In the other wire cup, a small object was placed. The placement of the stimulus mouse and small object switched sides across subjects. The C57BL/6J or BTBR mouse was allowed 10 minutes to explore all three chambers. A second stimulus mouse was subsequently placed in the wire cup in the opposite chamber. The first stimulus mouse was considered as familiar mouse. Again, the C57BL/6J or BTBR mouse was allowed 10 minutes to explore all three chambers.
During the latter 10-minute period, activity of each mouse was recorded and analyzed using the Noldus EthoVision™ software, which is a video tracking software that tracks and analyzes the behavior, movement. The following data were record and scored using activity of each mouse for:
(1) Duration and number of direct/active contacts between the test mouse and both wire cups (stimulus vs. familiar); Active contact was defined as mouse stretching towards wire cup within a 3-5 mm area around the cup; and […]

[2] = 300 nM [Glycerol-1,3-3H]-oleoyl glycerol, one hour, read-out: MGL IC50

Sequence of human MGL from HeLa cells (Q99685 whole entry): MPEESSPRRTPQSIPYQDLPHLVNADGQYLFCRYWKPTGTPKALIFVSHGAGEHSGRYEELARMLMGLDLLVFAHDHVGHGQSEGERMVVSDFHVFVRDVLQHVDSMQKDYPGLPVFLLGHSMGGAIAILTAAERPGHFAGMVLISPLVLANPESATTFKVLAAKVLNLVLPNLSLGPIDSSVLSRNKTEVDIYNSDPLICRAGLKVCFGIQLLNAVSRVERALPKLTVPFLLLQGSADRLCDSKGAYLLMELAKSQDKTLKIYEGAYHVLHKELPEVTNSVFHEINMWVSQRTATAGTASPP

Molecule `O=C1CC[C@]2(C[C@H](C(=O)N3CCC4(c5cccc(OC(F)(F)F)c5)CC4C3)C2)N1` (mixture of isomers) [Example 52, (rac)-(2r,4s)-2-(6-(3-(Trifluoromethoxy)phenyl)-3-azabicyclo[4.1.0]heptane-3-carbonyl)-5-azaspiro[3.4]octan-6-one] has an IC50 [1] of 4.8 nM.
`O=C1CC[C@]2(C[C@H](C(=O)N3CCC4(c5ccc(OC(F)(F)F)cc5)CC4C3)C2)N1` (mixture of isomers) [Example 55, (rac)-(2r,4s)-2-(6-(4-(Trifluoromethoxy)phenyl)-3-azabicyclo[4.1.0]heptane-3-carbonyl)-5-azaspiro[3.4]octan-6-one] gave an IC50 [1, 2] of 10 nM.
`O=C1CC[C@]2(C[C@H](C(=O)N3CCC4(c5ccc(C(F)(F)F)cc5)CC4C3)C2)N1` (mixture of isomers) [Example 59, (rac)-(2r,4s)-2-(6-(4-(Trifluoromethyl)phenyl)-3-azabicyclo[4.1.0]heptane-3-carbonyl)-5-azaspiro[3.4]octan-6-one] gave an IC50 [1, 2] of 18 nM.
In the case of `Cc1cccc([C@]23CCN(C(=O)[C@H]4C[C@]5(COC(=O)N5)C4)C[C@H]2C3)c1` (relative stereo) [Example 44, (2s,4*R)-2-((1*S,6*R)-6-(m-Tolyl)-3-azabicyclo[4.1.0]heptane-3-carbonyl)-7-oxa-5-azaspiro[3.4]octan-6-one], the IC50 [1, 2] is reported as 2.8 nM.
Work on `O=C1CC[C@]2(C[C@H](C(=O)N3CC[C@@]4(c5cccc(OC(F)(F)F)c5)C[C@H]4C3)C2)N1` (stereo in doubt) [Example 119, (2r,4*S)-2-((1*R,6*S)-6-(3-(Trifluoromethoxy)phenyl)-3-azabicyclo[4.1.0]heptane-3-carbonyl)-5-azaspiro[3.4]octan-6-one] yielded an IC50 [1, 2] of 5.2 nM.
For `O=C1CC[C@]2(C[C@H](C(=O)N3CC[C@]4(c5cccc(OC(F)(F)F)c5)C[C@@H]4C3)C2)N1` (stereo in doubt) [Example 120, (2r,4*R)-2-((1*S,6*R)-6-(3-(Trifluoromethoxy)phenyl)-3-azabicyclo[4.1.0]heptane-3-carbonyl)-5-azaspiro[3.4]octan-6-one], the IC50 [1, 2] was 23 nM.
Molecule `O=C1CC[C@]2(C[C@H](C(=O)N3CC[C@@]4(c5ccc(OC(F)(F)F)cc5)C[C@H]4C3)C2)N1` (stereo in doubt) [Example 121, (2r,4*S)-2-((1*R,6*S)-6-(4-(Trifluoromethoxy)phenyl)-3-azabicyclo[4.1.0]heptane-3-carbonyl)-5-azaspiro[3.4]octan-6-one] has an IC50 [1, 2] of 42 nM.
For `O=C1CC[C@]2(C[C@H](C(=O)N3CC[C@]4(c5ccc(OC(F)(F)F)cc5)C[C@@H]4C3)C2)N1` (stereo in doubt) [Example 122, (2r,4*R)-2-((1*S,6*R)-6-(4-(Trifluoromethoxy)phenyl)-3-azabicyclo[4.1.0]heptane-3-carbonyl)-5-azaspiro[3.4]octan-6-one], the IC50 [1, 2] was 12 nM.
In the case of `CC(C)(C)c1cccc([C@H]2[C@@H]3CN(C(=O)[C@H]4C[C@]5(COC(=O)N5)C4)C[C@@H]32)c1` [Example 78, (2s,4S)-2-((1R,5S,6S)-6-(3-(tert-Butyl)phenyl)-3-azabicyclo[3.1.0]hexane-3-carbonyl)-7-oxa-5-azaspiro[3.4]octan-6-one], the “Mean Diff., amount of time spent exploring familiar mouse chamber and stimulus mouse chamber (Bonferroni's multiple comparisons test)” value (C57BL/6J mice) is reported as −23.01, the “Mean Diff., amount of time spent interacting with familiar mouse or stimulus mouse (Bonferroni's multiple comparisons test)” value (C57BL/6J mice) is reported as 2.873 and the “Mean Diff., number of entries into familiar mouse chamber and stimulus mouse chamber (Bonferroni's multiple comparisons test)” value (C57BL/6J mice) is reported as 8.133. For the same molecule, the “Mean Diff., number of interactions with familiar mouse or stimulus mouse (Bonferroni's multiple comparisons test)” value (C57BL/6J mice) was 37.87, the “Mean Diff., amount of time spent exploring familiar mouse chamber and stimulus mouse chamber (Bonferroni's multiple comparisons test)” value (BTBR mice) was −40.36 and the “Mean Diff., amount of time spent interacting with familiar mouse or stimulus mouse (Bonferroni's multiple comparisons test)” value (BTBR mice) was −5.578. The “Mean Diff., number of entries into familiar mouse chamber and stimulus mouse chamber (Bonferroni's multiple comparisons test)” value (BTBR mice) was 4.133, the “Mean Diff., number of interactions with familiar mouse or stimulus mouse (Bonferroni's multiple comparisons test)” value (BTBR mice) was −47.07 and the “preference to familiar mouse over stimulus mouse (FIGS. 1C and 1D)” value (BTBR mice) was “did not show preference to familiar mouse over stimulus mouse”. The “social interaction (interest in social novelty) as compared to BTBR mice treated with placebo” value (BTBR mice) was “improved social interaction”.
In the case of `CC(C)c1cccc([C@H]2[C@@H]3CN(C(=O)[C@H]4C[C@]5(COC(=O)N5)C4)C[C@@H]32)c1` [Example 84, (2s,4S)-2-((1R,5S,6S)-6-(3-Isopropylphenyl)-3-azabicyclo[3.1.0]hexane-3-carbonyl)-7-oxa-5-azaspiro[3.4]octan-6-one], the IC50 [1, 2] is reported as 5.5 nM.
